Measurements from US8268854B2, “Aza-beta-carbolines and methods of using same” (The UWM Research Foundation, Inc., priority 2008, dated 2012).
Where a name gives a salt, the structure may show the parent alone.

Experiments:
NET transporter = target: T1, NET transporter (Homo sapiens, UniProt P23975); experiment: PDSP primary radioligand binding assay; details: compound 10 μM
T1 construct: expressed in transfected cells
Protocol: (§1) Primary and secondary radioligand binding assays are performed. In general, the primary assay is run at very high ligand (compound) concentration as a broad screen to determine whether a compound binds to a particular receptor. If greater than 50% inhibition at 10 μM (high concentration of compound) at a particular receptor is determined, a secondary assay is performed on that receptor. Data from the secondary assay is the binding affinity (Ki value).
(§2) A solution of the compound to be tested is prepared as a 1 mg/ml stock in Standard Binding Buffer or dimethyl sulfoxide (DMSO) according to its solubility. A similar stock of a reference compound (positive control) is also prepared.
(§3) Radioligand (radioligands are presented in Table 39) is diluted to five times the assay concentration (assay concentrations are presented in Table 39) in Standard Binding Buffer. Typically, the assay concentration of radioligand is a value between one half the KD and the KD of a particular radioligand at its target. Aliquots (50 μL) of radioligand are dispensed into the wells of a 96-well plate (see FIG. 11) containing 100 μL of Standard Binding Buffer (Table 40). Then, duplicate 50 μL aliquots of the test and reference compound dilutions are added (see FIG. 11). According to FIG. 11, increasing concentrations (from left to right) of reference or test compound (diluted in buffer) are added (50 μL aliquots, in duplicate) from 5× stock solutions to wells containing 50 μL of 5× radioligand (fixed concentration, prepared in buffer) and 100 μL of buffer. Finally, 50 μL of receptor-containing membrane homogenate (5× suspension in buffer) are added to achieve a final assay volume of 250 μL. Final concentrations of reference or test compound are listed above the columns in FIG. 11.
(§4) Finally, crude membrane fractions of cells expressing recombinant target (prepared from 10 cm plates by harvesting phosphate buffered saline (PBS)-rinsed monolayers, resuspending and lysing in chilled, hypotonic 50 mM Tris-HCl, pH 7.4, centrifuging at 20,000×g, decanting the supernatant and storing at −80° C.; typically, one 10 cm plate provides sufficient material for 24 wells) are resuspended in 3 mL of chilled Standard Binding Buffer and homogenized by several passages through a 26 gauge needle, and then 50 μL are dispensed into each well.
(§5) The 250 μL reactions are incubated at room temperature and shielded from light (to prevent photolysis of light-sensitive ligands) for 1.5 hours, then harvested by rapid filtration onto Whatman GF/B glass fiber filters pre-soaked with 0.3% polyethyleneimine using a 96-well Brandel harvester. Four rapid 500 μL washes are performed with chilled Standard Binding Buffer to reduce non-specific binding. Filters are placed in 6 mL scintillation tubes and allowed to dry overnight. The next day, 4 mL of EcoScint scintillation cocktail (National Diagnostics) are added to each tube. The tubes are capped, labeled, and counted by liquid scintillation counting. For higher throughput assays, bound radioactivity is harvested onto 0.3% polyethyleneimine-treated, 96-well filter mats using a 96-well Filtermate harvester. The filter mats are dried, then scintillant is melted onto the filters, and the radioactivity retained on the filters is counted in a Microbeta scintillation counter.
(§6) Raw data (dpm) representing total radioligand binding (i.e., specific+non-specific binding) are plotted as a function of the logarithm of the molar concentration of the competitor (i.e., test or reference compound). […]

Dopamine receptor D4 = target: T2, Dopamine receptor D4 (Homo sapiens, UniProt P21917); experiment: PDSP secondary radioligand binding assay
T2 construct: expressed in transfected cells
T2 sequence (P21917 1-419): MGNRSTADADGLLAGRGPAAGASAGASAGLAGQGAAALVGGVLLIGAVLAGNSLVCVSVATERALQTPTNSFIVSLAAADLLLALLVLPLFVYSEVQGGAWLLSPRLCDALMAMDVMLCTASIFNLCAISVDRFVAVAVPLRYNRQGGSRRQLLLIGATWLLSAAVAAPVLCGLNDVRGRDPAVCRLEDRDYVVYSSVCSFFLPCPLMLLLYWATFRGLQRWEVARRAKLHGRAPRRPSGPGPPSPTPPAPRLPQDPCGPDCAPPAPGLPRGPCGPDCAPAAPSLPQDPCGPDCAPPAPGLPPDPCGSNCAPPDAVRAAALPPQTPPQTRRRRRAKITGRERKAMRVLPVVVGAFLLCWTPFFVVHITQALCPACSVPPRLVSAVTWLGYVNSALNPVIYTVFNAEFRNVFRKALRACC
Protocol: as §1
This assay is used to test binding to receptors such as the serotonin receptors: 5-HT1A, 5-HT1B, 5-HT1D, 5-HT1E, 5-HT2A, 5-HT2B, 5-HT2C, 5-HT3, 5-HT5A, 5-HT6 and 5-HT7. The protocol is adapted from Roth et al. J. Pharmacol. Exp. Ther. 1986, 238, 480-485 and Roth et al. J. Pharmacol. Exp. Ther. 1994, 268, 1403-1410. The assay buffer is Standard Binding Buffer (50 mM Tris-HCl, 10 mM MgCl2, 0.1 mM EDTA, pH 7.4). The membrane fraction source is transiently or stably transfected cell lines (e.g., HEK293, COS, CHO, NIH3T3).
A solution of the compound to be tested is prepared as a 1 mg/mL stock in Standard Binding Buffer or DMSO according to its solubility. A similar stock of a reference compound (positive control) is also prepared.
Radioligand (see Table 41) is diluted to five times the assay concentration (see Table 21) in Standard Binding Buffer. […]
as §5, with “Four rapid 500 μL washes are performed with chilled Standard Binding Buffer to reduce non-specific binding. Filters are placed in 6 mL scintillation tubes and allowed to dry overnight. The next day, 4 mL of EcoScint scintillation cocktail (National Diagnostics) are added to each tube.” left out, “counter. […]” for “counter.”

SERT transporter = target: T3, SERT transporter (Homo sapiens, UniProt P31645); experiment: PDSP primary radioligand binding assay; details: compound 10 μM, n=4, read-out: mean percentage inhibition, SERT transporter
T3 construct: expressed in transfected cells
T3 sequence (P31645 whole entry): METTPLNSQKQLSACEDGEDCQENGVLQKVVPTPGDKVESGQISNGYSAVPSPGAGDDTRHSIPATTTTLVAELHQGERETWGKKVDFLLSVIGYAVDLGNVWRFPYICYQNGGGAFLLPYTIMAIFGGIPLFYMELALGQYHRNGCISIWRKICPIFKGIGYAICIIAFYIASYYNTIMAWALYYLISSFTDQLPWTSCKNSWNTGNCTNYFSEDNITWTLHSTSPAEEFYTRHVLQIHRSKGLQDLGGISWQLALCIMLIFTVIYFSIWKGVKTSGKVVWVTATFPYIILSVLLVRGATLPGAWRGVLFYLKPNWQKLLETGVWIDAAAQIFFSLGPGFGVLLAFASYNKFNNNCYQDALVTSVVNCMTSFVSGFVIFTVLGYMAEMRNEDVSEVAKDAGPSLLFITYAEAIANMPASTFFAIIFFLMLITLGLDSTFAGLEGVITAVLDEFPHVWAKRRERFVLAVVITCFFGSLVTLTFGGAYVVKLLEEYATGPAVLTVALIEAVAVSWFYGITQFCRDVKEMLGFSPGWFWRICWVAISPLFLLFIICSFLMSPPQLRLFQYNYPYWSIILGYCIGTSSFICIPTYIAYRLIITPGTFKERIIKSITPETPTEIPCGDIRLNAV
Protocol: as §1, §2, §3, §4, §5, §6

T1 sequence (P23975 whole entry): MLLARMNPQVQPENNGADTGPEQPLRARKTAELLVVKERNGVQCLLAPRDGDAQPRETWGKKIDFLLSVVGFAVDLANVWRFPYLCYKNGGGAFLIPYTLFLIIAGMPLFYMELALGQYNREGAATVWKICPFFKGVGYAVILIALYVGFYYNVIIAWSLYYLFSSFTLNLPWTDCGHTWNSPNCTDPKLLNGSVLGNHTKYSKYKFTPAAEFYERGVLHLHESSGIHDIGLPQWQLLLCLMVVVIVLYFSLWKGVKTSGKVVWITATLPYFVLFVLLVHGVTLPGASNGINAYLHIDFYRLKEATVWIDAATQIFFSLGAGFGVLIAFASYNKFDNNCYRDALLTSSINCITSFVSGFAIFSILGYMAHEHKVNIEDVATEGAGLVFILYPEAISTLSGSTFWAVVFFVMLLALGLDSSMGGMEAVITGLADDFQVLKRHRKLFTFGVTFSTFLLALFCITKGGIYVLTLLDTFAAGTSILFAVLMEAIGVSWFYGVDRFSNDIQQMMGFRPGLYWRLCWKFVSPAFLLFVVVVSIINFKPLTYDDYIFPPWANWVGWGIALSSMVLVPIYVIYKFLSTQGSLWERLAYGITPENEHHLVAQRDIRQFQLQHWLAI

Ki (Dopamine receptor D4) [µM]	inhibition at 10 µM (SERT transporter) [%]	Compound	mean percentage inhibition, NET transporter (NET transporter; n=4, hydrochloride, 10 µM) [%]	inhibition at 10 µM (NET transporter; n=4, read-out: mean percentage inhibition, NET transporter) [%]
		CCCOc1cc2c(cn1)[nH]c1cnccc12 [Compound 4, 3-Propoxy pyridino[4′,3′-4,5]pyrrolo[2,3-c]pyridine hydrochloride]	36.8	< 50
7.5	22.1	CCCOc1cc2c(cn1)[nH]c1ccncc12 [Compound 2, 8-Propoxypyridino[4′,3′-5,4]pyrrolo[3,2-c]pyridine hydrochloride]		
